Assay results: US12590111B2, “Flavonoid derivative for treating dental caries” (Mühlbauer Technology GmbH, priority 2019, dated 2026)

Legend:
[1] = biological target: T1, glucosyltransferase C of S. mutans (Streptococcus mutans serotype c, UniProt P13470); experiment: Inhibition of glucosyltransferase GtfC activity (fructose release, K-FRUGL kit); assay type: biochemical; conditions: for inhibition of glucosyltransferase C activity: 30 mM sucrose, pH 6.0, 1 h, 37° C.; for remaining enzyme activity: normalized to solvent control, FIG. 2
T1 construct: purchased nzytech
T1 sequence (P13470 35-1455): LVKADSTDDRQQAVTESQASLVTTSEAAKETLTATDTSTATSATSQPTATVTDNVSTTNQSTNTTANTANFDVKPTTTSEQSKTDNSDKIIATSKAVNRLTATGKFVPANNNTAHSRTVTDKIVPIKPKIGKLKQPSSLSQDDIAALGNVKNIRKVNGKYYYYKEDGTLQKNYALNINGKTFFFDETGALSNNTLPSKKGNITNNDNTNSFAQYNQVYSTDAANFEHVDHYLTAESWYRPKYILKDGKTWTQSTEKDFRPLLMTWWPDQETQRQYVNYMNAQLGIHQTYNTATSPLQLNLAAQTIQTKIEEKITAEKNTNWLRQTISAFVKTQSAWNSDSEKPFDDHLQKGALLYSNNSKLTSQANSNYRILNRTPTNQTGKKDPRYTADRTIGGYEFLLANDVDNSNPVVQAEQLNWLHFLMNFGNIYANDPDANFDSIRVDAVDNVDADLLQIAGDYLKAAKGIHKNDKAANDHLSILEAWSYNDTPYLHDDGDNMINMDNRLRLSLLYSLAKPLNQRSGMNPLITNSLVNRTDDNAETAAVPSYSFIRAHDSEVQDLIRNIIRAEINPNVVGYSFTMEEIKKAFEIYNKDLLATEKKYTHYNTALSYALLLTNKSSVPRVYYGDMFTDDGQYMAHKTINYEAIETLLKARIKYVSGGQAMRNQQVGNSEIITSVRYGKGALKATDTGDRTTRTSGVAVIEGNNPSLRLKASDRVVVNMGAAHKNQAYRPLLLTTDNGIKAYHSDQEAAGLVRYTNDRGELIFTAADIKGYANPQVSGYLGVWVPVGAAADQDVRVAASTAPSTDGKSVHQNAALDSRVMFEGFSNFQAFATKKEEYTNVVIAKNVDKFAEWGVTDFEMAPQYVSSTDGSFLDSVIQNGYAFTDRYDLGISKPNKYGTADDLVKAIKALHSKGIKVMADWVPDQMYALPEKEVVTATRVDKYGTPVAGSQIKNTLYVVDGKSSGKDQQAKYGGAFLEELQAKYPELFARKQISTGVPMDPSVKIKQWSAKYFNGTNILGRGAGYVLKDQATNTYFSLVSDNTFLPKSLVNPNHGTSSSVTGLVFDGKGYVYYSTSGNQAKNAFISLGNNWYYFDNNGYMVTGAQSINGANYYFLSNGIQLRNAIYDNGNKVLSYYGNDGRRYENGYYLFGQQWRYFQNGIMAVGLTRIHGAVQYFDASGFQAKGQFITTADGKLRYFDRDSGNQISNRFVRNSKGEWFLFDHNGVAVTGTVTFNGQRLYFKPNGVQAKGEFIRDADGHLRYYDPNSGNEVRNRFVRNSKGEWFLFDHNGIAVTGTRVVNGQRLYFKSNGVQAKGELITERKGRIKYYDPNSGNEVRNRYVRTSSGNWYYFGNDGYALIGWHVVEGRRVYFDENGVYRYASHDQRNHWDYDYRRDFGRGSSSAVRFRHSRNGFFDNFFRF
Protocol: (§1) For this purpose, the test substance was resuspended in a DMSO/ethanol mixture (20/80%) and then diluted in the reaction mixture to the concentration to be tested (final concentration DMSO/ethanol 2/8%). The glucosyltransferase GtfC (0.3 μg, nzytech) was incubated in 100 mM potassium phosphate buffer, pH 6.0 with 30 mM sucrose for one hour at 37° C. in the presence of the test substances. As a positive control, the enzyme activity was measured in the presence of DMSO/ethanol (2/8%). […] For this purpose, the D-fructose and D-glucose assay kit from Megazyme (K-FRUGL) was used.
D-glucose and D-fructose are phosphorylated in the presence of adenosine-5-triphosphate (ATP) to glucose-6-phosphate (G-6-P) and fructose-6-phosphate (F-6-P) by the enzyme hexokinase (HK), producing adenosine 5′-diphosphate (ADP) (1), (2).
In the presence of the enzyme glucose-6-phosphate dehydrogenase (G6P-DH), G-6-P is oxidized to gluconate-6-phosphate by nicotinamide adenine dinucleotide (NADP^+). This produces reduced nicotinamide adenine dinucleotide phosphate (NADPH) (3).
The amount of NADPH formed in this reaction corresponds stoichiometrically to the amount of D-glucose. The absorption of NADPH is measured at 340 nm.
After completion of the reaction (3), F-6-P is converted to G-6-P by phosphoglucose isomerase (PGI) (4).
The G-6-P formed reacts in turn with NADP^+ to form gluconate-6-phosphate and NADPH, which leads to a further increase in absorption and correlates stoichiometrically with the amount of D-fructose.
(§2) 9 independent reaction batches were measured in triplicate and the enzyme activity was normalized to the solvent control.

[2] = biological target: T2, GtfC enzyme activity of S. mutans (Streptococcus mutans serotype c, UniProt P13470); experiment: GtfC activity with flavonoid derivative bound to hydroxyapatite; assay type: biochemical; conditions: bound to HAP as in Example 4; activity in supernatant; FIG. 4
T2 construct: purchased nzytech
T2 sequence (P13470 35-1455): as above
Protocol: ApiBisPhos UD was bound to HAP as described in Example 4 and then incubated with GtfC as described in Example 3. The HAP was then centrifuged off and the GtfC activity in the supernatant was then determined as described in Example 3. A similar procedure was followed with the further flavonoid derivative “ApiBisPhos EG” according to the invention. […] In other words, the further example of a flavonoid derivative according to the invention (“ApiBisPhos EG”) confirms the successful functioning of the present invention as the basis for achieving the advantage according to the invention based on the adhesion of the flavonoid derivative according to the invention to the tooth surface comprising hydroxyapatite, so that the flavonoid derivative can prevent or to a great extent inhibit the formation of biofilm causing dental diseases on the tooth surfaces treated with the flavonoid derivative in the long term.

S. mutans biofilm = S. mutans biofilm formation on saliva-coated hydroxyapatite disks (crystal violet); assay type: cell-based; conditions: HAP disks pretreated with 60 μl 10 mM, 60 min; 24 h culture at 37° C.; relative to solvent control
Protocol: In this example, it was investigated whether “ApibisPhos UD” has a significant influence on S. mutans-mediated biofilm formation using hydroxyapatite discs coated with saliva under conditions simulating the oral cavity.
For this purpose, sterile hydroxyapatite disks (Clarkson Chromatography Products Inc., Ø5 mm×2 mm) were coated with saliva (Lee Biosolutions, human pooled donors) as substrate for 60 minutes and then incubated with ApiBisPhos UD (60 μl; 10 mM in DMSO/ethanol mixture, 20/80%) for 60 minutes. After washing twice with DPBS, these pretreated hydroxyapatite disks were coated with S. mutans preculture (1.5×10^8 bacteria per ml in Balmelli broth) and cultured aerobically at 37° C. for 24 hours. The grown biofilm was fixed with 100% ethanol (30 min, 25° C.), stained with 0.06% (w/v) crystal violet (60 min, 25° C.) and the dye eluted with 30% (v/v) acetic acid quantified by measuring the absorbance at 570 nm. The measured values were set in relation to the solvent control (DMSO/ethanol mixture; 20/80%), i.e. without the use of ApibisPhos UD.

[3] = Solubility in the GtfC reaction mixture; assay type: physicochemical; conditions: 6 mM; final DMSO/ethanol 2/8%
Protocol: as §1, §2

[4] = pH 6, read-out: inhibition of glucosyltransferase C activity

Compound: Mixture of 4′-(11,11-bisphosphonoundecanoxy)-7,5-dihydroxyflavone and 7-(11,11-bisphosphonoundecanoxy)-4′, 5-dihydroxyflavone [ApiBisPhos UD]
- inhibition of glucosyltransferase C activity ([1]; 1 mM): 72±9%
- remaining enzyme activity ([1]; 1 mM): less than 30%
- inhibition of glucosyltransferase C activity ([1]; 3 mM): 90±4%
- remaining enzyme activity ([1]; 3 mM): about 10%
- inhibition of glucosyltransferase C activity ([1]; 6 mM): 99±2%
- inhibition of GtfC enzyme activity by substance bound to hydroxyapatite [2]: inhibit the GtfC enzyme activity of S. mutans to a considerable degree
- inhibition of biofilm formation on HAP surfaces (S. mutans biofilm): 26±9%

Compound: Mixture of 4′-(12,12-bisphosphono-3,6,9-trioxadodecanoxy)-7,5-dihydroxyflavone and 7-(12,12-bisphosphono-3,6,9-trioxadodecanoxy)-4′,5-dihydroxyflavone [ApiBisPhos EG]
- inhibition of GtfC enzyme activity by substance bound to hydroxyapatite [2]: inhibit the GtfC enzyme activity of S. mutans to a considerable degree

Compound: O=c1cc(-c2ccc(O)cc2)oc2cc(O)cc(O)c12 [apigenin, reference compound]
- inhibition at 1000 µM [1, 4]: 38 ± 10%
- inhibition at 3000 µM [1, 4]: 53 ± 6%
- solubility [3]: insufficient solubility
